In US10087169B2, “Bicyclic PKM2 activators” (Agios Pharmaceuticals, Inc., priority 2010, dated 2018):

Each compound was assayed against PKM2 (Homo sapiens, UniProt P14618) (assay: PKM2 Assay). Settings: activation of PKM2; Tables 1-4.
Assay type: biochemical
Method: • PKM2 stock enzyme solution was diluted in Reaction Buffer • 2 μL of compound was added into each well first, and then 180 μL of the Reaction Mix was added. • Reaction mixture with compound (without ADP) was incubated for 30 minutes at 4° C. • Plates were re-equilibrated to room temperature prior to adding 20 μL ADP to initiate the reaction. • Reaction progress was measured as changes in absorbance at 340 nm wavelength at room temperature (25° C.) Reaction Mix:
PKM2 (50 ng/well), ADP (0.7 mM), PEP (0.15 mM), NADH (180 μM), LDH (2 units) in Reaction Buffer

Sequence of PKM2 (P14618 whole entry): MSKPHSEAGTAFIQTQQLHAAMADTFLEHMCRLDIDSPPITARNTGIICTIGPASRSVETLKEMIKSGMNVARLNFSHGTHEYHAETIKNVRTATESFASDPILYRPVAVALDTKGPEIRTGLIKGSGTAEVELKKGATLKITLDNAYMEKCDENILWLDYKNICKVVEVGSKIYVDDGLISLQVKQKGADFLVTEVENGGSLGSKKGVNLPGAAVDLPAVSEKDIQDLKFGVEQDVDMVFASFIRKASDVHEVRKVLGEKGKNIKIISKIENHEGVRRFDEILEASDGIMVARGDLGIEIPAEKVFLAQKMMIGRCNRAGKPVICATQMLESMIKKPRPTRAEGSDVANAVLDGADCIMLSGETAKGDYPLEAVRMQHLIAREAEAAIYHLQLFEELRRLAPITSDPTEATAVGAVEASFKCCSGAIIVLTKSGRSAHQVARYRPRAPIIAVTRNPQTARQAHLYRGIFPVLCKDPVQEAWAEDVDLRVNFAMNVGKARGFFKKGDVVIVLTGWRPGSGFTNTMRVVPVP

First: Cc1cc(NS(=O)(=O)c2ccc3c(c2)N(C)C(=O)OC3)ccc1F
Second: Cc1cc(NS(=O)(=O)c2ccc3c(c2)COC(=O)N3C)ccc1F
The AC50 of the first is lower: < 100 nM for the first, 100 to 500 nM for the second.

Compared with `CN1C(=O)OCc2ccc(S(=O)(=O)Nc3ccc(F)c(Cl)c3)cc21`, `CN1C(=O)OCc2cc(S(=O)(=O)Nc3ccc(F)c(Cl)c3)ccc21` is higher in AC50: < 100 nM for the first, 100 to 500 nM for the second.

`CN1Cc2cc(S(=O)(=O)Nc3ccc(F)c(Cl)c3)ccc2OC1=O` and `Cc1cc(NS(=O)(=O)c2ccc3c(c2)CN(C)C(=O)O3)ccc1F` fall in the same range of AC50: 100 to 500 nM for the first, 100 to 500 nM for the second.

First: O=C1Oc2ccc(S(=O)(=O)Nc3ccc(F)c(Cl)c3)cc2CN1Cc1ccccc1
Second: CN1CC(=O)Oc2ccc(S(=O)(=O)Nc3ccc(F)c(Cl)c3)cc21
The AC50 of the first is higher: > 500 nM for the first, < 100 nM for the second.

Compared with `Cc1cc(C)cc(NS(=O)(=O)c2ccc3c(c2)NC(=O)CO3)c1`, `Cc1cc(C)cc(NS(=O)(=O)c2ccc3c(c2)N(C)C(=O)CO3)c1` is lower in AC50: > 500 nM for the first, < 100 nM for the second.

`O=C1COc2ccc(S(=O)(=O)Nc3ccc(F)cc3)cc2N1` and `COc1ccc(NS(=O)(=O)c2ccc3c(c2)NC(=O)CO3)cc1` cannot be ordered by AC50: > 500 nM for the first, > 500 nM for the second.

`O=C1COc2ccc(S(=O)(=O)Nc3ccc4c(c3)OCCO4)cc2N1` and `CN1C(=O)COc2ccc(S(=O)(=O)Nc3ccc4c(c3)OCCO4)cc21` cannot be ordered by AC50: > 500 nM for the first, > 500 nM for the second.

`CN1C(=O)COc2ccc(S(=O)(=O)Nc3ccc(F)cc3)cc21` and `COc1ccc(NS(=O)(=O)c2ccc3c(c2)N(C)C(=O)CO3)cc1` cannot be ordered by AC50: > 500 nM for the first, > 500 nM for the second.

`Cc1cc(NS(=O)(=O)c2ccc3c(c2)N(C)C(=O)CO3)ccc1F` and `CN1C(=O)COc2ccc(S(=O)(=O)Nc3ccc(F)c(Cl)c3)cc21` cannot be ordered by AC50: < 100 nM for the first, < 100 nM for the second.

`CN1C(=O)COc2ccc(S(=O)(=O)Nc3cccc(Cl)c3)cc21` and `CN1CC(=O)Oc2ccc(S(=O)(=O)Nc3cccc(Cl)c3)cc21` cannot be ordered by AC50: < 100 nM for the first, < 100 nM for the second.

`CN1C(=O)COc2ccc(S(=O)(=O)Nc3ccc4c(c3)OCO4)cc21` and `Cc1cc(NS(=O)(=O)c2ccc3c(c2)N(C)CC(=O)O3)ccc1F` cannot be ordered by AC50: < 100 nM for the first, < 100 nM for the second.
